The subject of the data set is CCRIS mutagenicity, Ames/micronucleus/aberration tests. Nature of the data set: CCRIS mutagenicity studies.
[1] abbreviates: Test System: AMES SALMONELLA TYPHIMURIUM, Strain/Indicator: TA97, Metabolic Activation: NONE, Method: PREINCUBATION
Setting [2] is: Test System: AMES SALMONELLA TYPHIMURIUM, Strain/Indicator: TA98, Metabolic Activation: NONE, Method: PREINCUBATION
[3] abbreviates: Test System: AMES SALMONELLA TYPHIMURIUM, Strain/Indicator: TA100, Metabolic Activation: NONE, Method: PREINCUBATION
Where [4] appears, read: Test System: AMES SALMONELLA TYPHIMURIUM, Strain/Indicator: TA1535, Metabolic Activation: NONE, Method: PREINCUBATION

Active and inactive are the calls of the source. How the calls were made is not given here.

The results in this text go back to PubChem BioAssay AID1259407 (Chemical Carcinogenesis Research Information System (CCRIS), 2018).

Take `[K+]`: the mutagenic call (End Point: IN VIVO MICRONUCLEUS, Test System: BONE MARROW POLYCHROMATIC ERYTHROCYTES, Species: MOUSE, Strain/Sex: DDY/MALE, Route: IP) was “inactive; negative”; the mutagenic call (End Point: In vitro chromosomal aberrations, Test System: Chinese hamster lung (CHL) cells, Metabolic Activation: None) is “active; positive (structural changes)”; the mutagenic call (Test System: AMES SALMONELLA TYPHIMURIUM, Strain/Indicator: TA97, Metabolic Activation: HAMSTER, LIVER, S-9, AROCLOR 1254 (10 OR 30%), Method: PREINCUBATION) is “inactive; negative”; the mutagenic call under setting [1] is “inactive; negative”; the mutagenic call (Test System: AMES SALMONELLA TYPHIMURIUM, Strain/Indicator: TA97, Metabolic Activation: RAT, LIVER, S-9, AROCLOR 1254 (10 OR 30%), Method: PREINCUBATION) is “inactive; negative”; the mutagenic call (Test System: AMES SALMONELLA TYPHIMURIUM, Strain/Indicator: TA98, Metabolic Activation: HAMSTER, LIVER, S-9, AROCLOR 1254 (10 OR 30%), Method: PREINCUBATION) was “inactive; negative”. The mutagenic call by setting is: under setting [2], “inactive; negative”; (Test System: AMES SALMONELLA TYPHIMURIUM, Strain/Indicator: TA98, Metabolic Activation: RAT, LIVER, S-9, AROCLOR 1254 (10 OR 30%), Method: PREINCUBATION) “inactive; negative”; (Test System: AMES SALMONELLA TYPHIMURIUM, Strain/Indicator: TA100, Metabolic Activation: HAMSTER, LIVER, S-9, AROCLOR 1254 (10 OR 30%), Method: PREINCUBATION) “inactive; negative”; under setting [3], “inactive; negative”; (Test System: AMES SALMONELLA TYPHIMURIUM, Strain/Indicator: TA100, Metabolic Activation: RAT, LIVER, S-9, AROCLOR 1254 (10 OR 30%), Method: PREINCUBATION) “inactive; negative”; (Test System: AMES SALMONELLA TYPHIMURIUM, Strain/Indicator: TA1535, Metabolic Activation: HAMSTER, LIVER, S-9, AROCLOR 1254 (10 OR 30%), Method: PREINCUBATION) “inactive; negative”. Also, the mutagenic call under setting [4] was “inactive; negative” and the mutagenic call (Test System: AMES SALMONELLA TYPHIMURIUM, Strain/Indicator: TA1535, Metabolic Activation: RAT, LIVER, S-9, AROCLOR 1254 (10 OR 30%), Method: PREINCUBATION) is “inactive; negative”.
With `CNc1ccc2nc(C)cnc2c1C`, the mutagenic call reads like this: under setting [2], “inactive; negative”; (Test System: AMES SALMONELLA TYPHIMURIUM, Strain/Indicator: TA98, Metabolic Activation: RAT, LIVER, S-9, PCB, Method: PREINCUBATION) “active; positive”; under setting [3], “inactive; negative”; (Test System: AMES SALMONELLA TYPHIMURIUM, Strain/Indicator: TA100, Metabolic Activation: RAT, LIVER, S-9, PCB, Method: PREINCUBATION) “active; positive”.
In the case of `Cn1c(N=[N+]=[N-])nc2c3ccccc3ccc21`, the mutagenic call is “active; positive” (Test System: AMES SALMONELLA TYPHIMURIUM, Strain/Indicator: TA98(1,8-DNP6), Metabolic Activation: NONE, Method: STANDARD PLATE) and “active; positive” (Test System: AMES SALMONELLA TYPHIMURIUM, Strain/Indicator: TA98, Metabolic Activation: NONE, Method: STANDARD PLATE).
Take `C[C@]12CC[C@@H]3c4ccc(O)cc4CC[C@H]3[C@@H]1C[C@@H](O)C2=O`: the mutagenic call reads like this: (Test System: Ames Salmonella typhimurium, Strain/Indicator: TA98, Metabolic Activation: None, Method: Standard plate) “inactive; negative”; (Test System: Ames Salmonella typhimurium, Strain/Indicator: TA98, Metabolic Activation: Rat, liver, S-9, Method: Standard plate) “inactive; negative”; (Test System: Ames Salmonella typhimurium, Strain/Indicator: TA100, Metabolic Activation: None, Method: Standard plate) “inactive; negative”; (Test System: Ames Salmonella typhimurium, Strain/Indicator: TA100, Metabolic Activation: Rat, liver, S-9, Method: Standard plate) “inactive; negative”.
Regarding `O[C@H]([C@H](O)[C@@H](O)CBr)[C@H](O)CBr`, the mutagenic call reads like this: (Test System: AMES SALMONELLA TYPHIMURIUM, Strain/Indicator: TA98, Metabolic Activation: HAMSTER, LIVER, S-9, AROCLOR 1254 (10%), Method: PREINCUBATION) “inactive; negative”; under setting [2], “inactive; negative”; (Test System: AMES SALMONELLA TYPHIMURIUM, Strain/Indicator: TA98, Metabolic Activation: RAT, LIVER, S-9, AROCLOR 1254 (10%), Method: PREINCUBATION) “inactive; negative”; (Test System: AMES SALMONELLA TYPHIMURIUM, Strain/Indicator: TA100, Metabolic Activation: HAMSTER, LIVER, S-9, AROCLOR 1254 (10%), Method: PREINCUBATION) “active; positive”; under setting [3], “active; positive”; (Test System: AMES SALMONELLA TYPHIMURIUM, Strain/Indicator: TA100, Metabolic Activation: RAT, LIVER, S-9, AROCLOR 1254 (10%), Method: PREINCUBATION) “active; positive”. The mutagenic call is, setting by setting: (Test System: AMES SALMONELLA TYPHIMURIUM, Strain/Indicator: TA1535, Metabolic Activation: HAMSTER, LIVER, S-9, AROCLOR 1254 (10%), Method: PREINCUBATION) “active; positive”; under setting [4], “active; positive”; (Test System: AMES SALMONELLA TYPHIMURIUM, Strain/Indicator: TA1535, Metabolic Activation: RAT, LIVER, S-9, AROCLOR 1254 (10%), Method: PREINCUBATION) “active; positive”; (Test System: AMES SALMONELLA TYPHIMURIUM, Strain/Indicator: TA1537, Metabolic Activation: HAMSTER, LIVER, S-9, AROCLOR 1254 (10%), Method: PREINCUBATION) “inactive; negative”; (Test System: AMES SALMONELLA TYPHIMURIUM, Strain/Indicator: TA1537, Metabolic Activation: NONE, Method: PREINCUBATION) “inactive; negative”; (Test System: AMES SALMONELLA TYPHIMURIUM, Strain/Indicator: TA1537, Metabolic Activation: RAT, LIVER, S-9, AROCLOR 1254 (10%), Method: PREINCUBATION) “inactive; negative”.
For the molecule `O=P(O)(O)OC(CO)CO`, the mutagenic call under setting [1] was “inactive; negative”; the mutagenic call (Test System: AMES SALMONELLA TYPHIMURIUM, Strain/Indicator: TA97, Metabolic Activation: RAT, LIVER, S-9, AROCLOR 1254, Method: PREINCUBATION) was “inactive; negative”; the mutagenic call (Test System: AMES SALMONELLA TYPHIMURIUM, Strain/Indicator: TA102, Metabolic Activation: NONE, Method: PREINCUBATION) is “inactive; negative”; the mutagenic call (Test System: AMES SALMONELLA TYPHIMURIUM, Strain/Indicator: TA102, Metabolic Activation: RAT, LIVER, S-9, AROCLOR 1254, Method: PREINCUBATION) is “inactive; negative”.
